Reference: US5147856A, “Method for inhibiting blood vessel blockage using octapeptide compositions” (Societe de Conseils de Recherches et d'Applications …, priority 1988, dated 1992)
“And” between values parts separate entries of the source, which are not always exact repeats. Equal values may be shown once. Square brackets hold non-standard residues; d marks the D form. Mpa = O=C(O)CCS

Key:
[1] = system: myointimal proliferation of the carotid artery; assay: Air-drying injury of the rat carotid artery, intimal/media ratio (Example 2); type: in vivo; conditions: for Intimal/Media Ratio: mean ± SE; for Inhibition of myointimal (smooth muscle cell) proliferation of the carotid artery, in words: administered from two days prior to injury, at the doses used (20 and 50 μg/kg/day)
Protocol: Male Sprague-Dawley rats, weighing […], obtained from Charles River were kept under controlled lighting conditions and fed rat chow and water ad libitum. Under sodium pentobarbital anesthesia the intima of the right carotid artery was subjected to an air-drying injury described by Fishman et al, Lab Invest., 32, 339 (1975). The procedure causes intimal hyperplasia that largely consists of proliferating intimal smooth muscle cells. In this model approximately 4 cm of the vessel is isolated and drained of blood. Air (20 ml/min) is blown through a 30 gauge needle for 5 min whereafter blood flow is reestablished. The contralateral carotid artery was also exposed but not air-dried. The rats were sacrificed 15 days later.
The experiment consisted of a control group and ten treatment groups. The somatostatin analogs used were hepta- or octapeptides, namely BIM 23014 (Angiopeptin), BIM 23012, BIM 23027, BIM 23030 and BIM 23034. […] The animals were pretreated two days prior to the procedure and for a further five days following the endothelial injury. Two additional groups of animals were added in order to study whether Angiopeptin (20 μg/kg/day and 50 μg/kg/day) administered 30 min prior to the endothelial injury and for a further five days would protect against the myointimal proliferation.
The animals were sacrificed on day 15 following the injury by exsanguination. The vascular system was flushed with normal saline and perfusion-fixed at 80 mmHg with 10% formalin. The carotid arteries were subsequently fixed, embedded and sectioned for light microscopy and morphometric analysis. The maximal intimal/media ratio is the distance from the lumen to the internal elastic lamina and the distance from the internal elastic lamina to the external elastic lamina. The distances were determined in each vessel using a digitizing system attached to a light microscope. The determinations were performed on three different cross sections of the vessel and each section was measured three times. The mean was calculated for each vessel. Differences between the groups were evaluated using Student's unpaired t-test.

growth hormone release = conditions: cited from earlier work; for Potency for growth hormone suppression in vivo, relative to somatostatin 14: rats, compared to somatostatin 14 (=1); for Inhibition of growth hormone release, in words: in vivo
[2] = system: intimal hyperplasia of aorta and iliac arteries; assay: Myointimal hyperplasia in rabbits after balloon angioplasty (Example 3); type: in vivo, rabbit; conditions: for % Intimal hyperplasia: 20 μg/kg twice daily s.c., individual samples; for Percentage of inhibition of myointimal hyperplasia: 20 μg/kg/d
Protocol: Female and Male, white New Zealand rabbits (2.8-3.0 kg) were divided into two groups (A and B). Group A (vehicle control) received subcutaneous injections of physiological saline (0.2 ml) twice daily. […] The animals were treated the day before angioplasty, and until sacrifice about 3 weeks later. The angioplasty was done under general anesthesia with Ketamine and Xylazine. Each animal's left iliac artery and aorta were denuded with an angioplasty catheter (Fogarty). The angioplasty catheter was inserted into the left femoral artery and passed through the vessel to the thoracic aorta. The catheter was then reciprocated three times. The animals were all sacrificed from days 22-24 after angioplasty. The aorta and iliac arteries were fixed in situ via perfusion with formaldehyde under constant perfusion pressure.
Intimal hyperplasia was determined on elastin-stained (Van Giesen) horizontally-cut sections. The sections were obtained from (i) the aorta at the level of the renal artery, (ii) the common iliac artery at the level of bifurcation, and (iii) the external iliac artery just above the inguinal ligament. The area of intimal hyperplasia and total vessel area were determined by morphometry. The percentage of intimal hyperplasia was expressed as follows: [formula]
Single determinations were made on three segments of each aorta and the two iliac arteries of each animal. The percentage of intimal hyperplasia was determined as the mean of the two closest measurements of each vessel.

[3] = system: hyperplasia of the right carotid artery; assay: Air-drying injury of the rat right carotid artery, ratio of width of intimal and medial layers (Example 4); type: in vivo; conditions: 50 μg/kg/day s.c. twice a day
Protocol: Angiopeptin was administered s.c. twice a day 50 μg/kg/day to male Sprague-Dawley (Charles River) rats, 250-350 g each. After two days of pre-treatment, a lesion was made on the third day after the morning dose by air-drying the right carotid artery while the rats were under anesthesia (Ketamine-Innovar, i.m.). Treatment was continued on day: 4, 5, 6, and 7. The rats were sacrificed on day 14 following the injury. After in-situ fixation at constant pressure, with 10% formalin, the tissues were prepared to form morphometrics.
Hyperplasia was measured as the ratio of width of intimal and medial layers. For each rat, 3 different histological sections were measured and the morphometrics was done 3 times on each section.

[4] = system: smooth muscle cell proliferation in the aorta and femoral arteries; assay: Primate balloon catheter injury of aorta and femoral arteries (Example 5); type: in vivo, cynomologous macaque; conditions: aorta and left and right femoral arteries; i.m. slow release system, 50 μg/kg/day; one treated primate vs one control; five weeks
Protocol: In order to obtain a primate coronary angioplasty model which would be suited for evaluation of Angiopeptin, a feasibility study was performed on primates which were made available from the colony at Bowman-Gray Medical School, Winston-Salem, North Carolina. These animals were culled from the colony due to failure of the primates to satisfactorily elevate blood lipids when administered a high cholesterol diet. Young male cynomologous macaques weighing approximately 3.5 kg were used after an equilibration period of more than a week in a primate facility.
The animals were sedated with Ketamine and maintained with 1% halothane in oxygen. The aorta and femoral arteries were injured by a balloon catheter (USCI, Band). After five weeks the primates were anesthetized and sacrificed. The aorta and femoral arteries were removed and fixed in formaldehyde for morphometric analysis. […]
The maximal intimal/media ratio (distance from lumen to internal elastic lamina/distance from internal elastic lamina to external elastic lamina) was determined in each vessel using a digitizing system attached to a light microscope. The determinations were done on three different cross sections of the vessel and each section was measured three times and each three measurements were averaged.

[5] = system: myointimal cell proliferation in the aortas of rabbits; assay: Rabbit aorta 72 hours after balloon angioplasty: wet weight, protein, DNA/protein, 3-H thymidine incorporation (Example 6); type: in vivo; conditions: for DNA/Protein ratio, in words: FIG. 3; for Rates of cell proliferation by 3-H thymidine incorporation, in words: FIG. 4
Protocol: New Zealand White Rabbits were anesthetised with Rompun (Xylazine) and Ketalar (Ketamine) and a cannula (3F Fogarty) was inserted from the femoral artery. The balloon was inflated at a constant pressure and the aorta was de-endothelialised by angioplasty. The process was repeated three times and the wound site was closed. The animals were sacrificed 72 hours after balloon angioplasty and after removing the adventitia the aorta was cut into fine rings. These rings were incubated in the presence of 3-H thymidine and the radioactivity was determined after processing the tissue. Simultaneous measurements of DNA and protein contents were also made in these tissues.
Eight injections of Angiopeptin were made: on the morning and evening of the day prior to ballooning; two on the day of the procedure; and two on each of the following two days. The total daily dose was 2, 20, or 200 μg/Kg body weight.

[6] = system: Smooth Muscle Pig Left Coronary Artery Explants; assay: H3-thymidine incorporation in pig left coronary artery explants (Example 7); type: cell-based; conditions: 24 hr, individual segments
Protocol: Domestic pig hearts were obtained from a slaughter house immediately after the animals were sacrificed. The hearts were harvested and placed in ice-cold Kreb's Ringer buffer and transported to the laboratory. The left coronary artery (LAD) was dissected in aseptic conditions and divided into pieces of 5 mm. The segments were denuded from the endothelium by gently introducing a metallic rod in the lumen. The tissues were placed in sterile multiwell culture dishes in 1 ml of culture media (DMEM with antibiotics) and without fetal calf serum. H^3 -thymidine (2.5 uCi/ml) and increasing concentrations of angiopeptin (10-1000 ng/ml) were added to the medium. Segments which were incubated with 3 different concentrations of forskolin were used as a positive control in each experiment. The incubation period was 24 hr at 37° C. and 5% CO2. The tissues were washed with phosphate saline buffer and placed in a solution of cold thymidine for one hour and then frozen in liquid nitrogen, ground and lysed with a hypotonic solution. The lysed tissues were further incubated with proteinase K overnight at 50° C. The radioactivity, content of protein and DNA were measured.

[7] = 20 μg/kg/day s.c. in two divided doses, from two days prior to injury and five days postinjury, sacrifice day 15
[8] = 50 μg/kg/day s.c. in two divided doses, from two days prior to injury and five days postinjury, sacrifice day 15
[9] = common iliac artery, female rabbits
[10] = common iliac artery, male rabbits
[11] = external iliac artery, female rabbits

[Mpa]Y[dW]KVCF-NH2 (cysteine pairing not given here) [BIM 23030]
Intimal/Media Ratio [1, 7]: 1.6 ± 0.2
Intimal/Media Ratio [1, 8]: 2.2 ± 0.5
Inhibition of myointimal (smooth muscle cell) proliferation of the carotid artery, in words [1]: did not inhibit
Potency for growth hormone suppression in vivo, relative to somatostatin 14 (growth hormone release): 0.5

D-Phe--Cys--Phe-D-Trp--Lys--Thr--Cys--Thr--NH2 [BIM 23012]
Intimal/Media Ratio [1, 7]: 2.3 ± 0.4
Intimal/Media Ratio [1, 8]: 1.6 ± 0.4
Inhibition of myointimal (smooth muscle cell) proliferation of the carotid artery, in words [1]: did not inhibit
Potency for growth hormone suppression in vivo, relative to somatostatin 14 (growth hormone release): 62

CC(C)[C@@H]1NC(=O)[C@H](CCCCN)NC(=O)[C@@H](Cc2c[nH]c3ccccc23)NC(=O)[C@H](Cc2ccc(O)cc2)NC(=O)[C@@H](NC(=O)[C@H](N)Cc2ccc3ccccc3c2)CSSC[C@@H](C(=O)N[C@H](C(N)=O)[C@@H](C)O)NC1=O [Angiopeptin, D-Nal-Cys-Tyr-D-Trp-Lys-Val-Cys-Thr-NH2]
Intimal/Media Ratio [1, 7]: 1.7 ± 0.2
Intimal/Media Ratio ([1]; 20 μg/kg/day, pretreatment 30 min prior to injury and for a further five days): 1.6 ± 0.9
Inhibition of myointimal proliferation, in words ([1]; 50 μg/kg/day from 30 min prior to injury and for a further five days): significantly (p<0.01) inhibited
Intimal/Media Ratio [1, 8]: 1.1 ± 0.2
Intimal/Media Ratio ([1]; 50 μg/kg/day, pretreatment 30 min prior to injury and for a further five days): 1.0 ± 0.3
Inhibition of myointimal (smooth muscle cell) proliferation of the carotid artery, in words [1]: inhibited significantly
Inhibition of myointimal proliferation, in words ([1]; high dose 50 μg/kg/day, from two days prior to injury): effective
Inhibition of myointimal proliferation, in words ([1]; low dose 20 μg/kg/day, from two days prior to injury): effective
% Intimal hyperplasia ([2]; aorta, female rabbits): 13.0% and 6.4%
Percentage of inhibition of myointimal hyperplasia ([2]; aorta, female rabbits): ~43%
% Intimal hyperplasia ([2]; aorta, male rabbits): 17.0%
Percentage of inhibition of myointimal hyperplasia ([2]; aorta, male rabbits): ~32%
% Intimal hyperplasia [2, 9]: 9.3% and 9.5% and 7.7% and 6.5%
Percentage of inhibition of myointimal hyperplasia [2, 9]: ~33%
% Intimal hyperplasia [2, 10]: 16.0% and 6.4% and 14.0%
Percentage of inhibition of myointimal hyperplasia [2, 10]: ~39%
% Intimal hyperplasia [2, 11]: 6.6%
Percentage of inhibition of myointimal hyperplasia [2, 11]: about 41%
Percentage of inhibition of myointimal hyperplasia ([2]; external iliac artery, male rabbits): ~20%
Hyperplasia: ratio of width of intimal and medial layers ([3]; two days pre-treatment and days 4-7, sacrifice day 14, individual rats): 0.46 ± 0.08 and 0.28 ± 0.03 and 0.52 ± 0.05 and 0.69 ± 0.02
Hyperplasia: ratio of width of intimal and medial layers, mean ([3]; group mean, N 4): 0.48
Inhibition of smooth muscle cell proliferation, in words [4]: nearly complete inhibition
Total protein content of injured aortas, in words ([5]; 2 μg/kg, FIG. 2): lowered
DNA/Protein ratio, in words ([5]; 20 μg/kg body weight): significantly lowered
Rates of cell proliferation by 3-H thymidine incorporation, in words ([5]; 20 μg/kg body wt.): significantly lower
DNA/Protein ratio, in words ([5]; 200 μg/kg body wt.): reflected the inhibitory influence
Rates of cell proliferation by 3-H thymidine incorporation, in words ([5]; 200 μg/kg): still inhibited
Wet weight of aortas, in words ([5]; 2, 20, 200 μg/kg body wt. total daily dose, FIG. 1): does not seem to influence
Levels of total proteins, in words ([5]; higher doses (20 and 200 μg/kg), FIG. 2): did not affect
Rates of cell proliferation by 3-H thymidine incorporation, in words ([5]; overall): significantly inhibited
CPM (H3-thymidine radioactivity) ([6]; Angiopeptin 10 ng/ml): 35113.84 CPM and 46392.32 CPM and 27312.80 CPM and 55980.00 CPM
CPM (H3-thymidine radioactivity) ([6]; Angiopeptin 20 ng/ml): 26279.81 CPM and 39027.27 CPM and 39706.01 CPM and 21562.08 CPM
CPM (H3-thymidine radioactivity) ([6]; Angiopeptin 50 ng/ml): 18942.16 CPM and 24269.18 CPM and 40768.09 CPM and 18983.78 CPM
CPM (H3-thymidine radioactivity) ([6]; Angiopeptin 100 ng/ml): 20794.85 CPM and 32402.31 CPM and 22033.48 CPM and 26227.64 CPM
CPM (H3-thymidine radioactivity) ([6]; Angiopeptin 1000 ng/ml): 18325.51 CPM and 27260.98 CPM and 30226.99 CPM and 32344.58 CPM
Inhibition of growth hormone release, in words (growth hormone release): less active
Potency for growth hormone suppression in vivo, relative to somatostatin 14 (growth hormone release): 5

D-Trp--Lys--Abu--Phe--Me--Ala--Tyr [BIM 23027]
Intimal/Media Ratio [1, 7]: 1.6 ± 0.2
Intimal/Media Ratio [1, 8]: 1.5 ± 0.2
Inhibition of myointimal (smooth muscle cell) proliferation of the carotid artery, in words [1]: did not inhibit
Inhibition of growth hormone release, in words (growth hormone release): most potent
Potency for growth hormone suppression in vivo, relative to somatostatin 14 (growth hormone release): 100
